Measurements reported in ChEMBL document CHEMBL1146394, “New antihepatotoxic cerebroside from Lycium chinense fruits” (1997).

How the values were obtained:
Hepatocyte [1] = assay: Antihepatotoxic activity against CCl4-induced cytotoxicity in rat hepatocytes assessed as blockade of glutamic pyruvic transaminase release at 25 uM by Reitman-Frankel method relative to control; format: functional
Hepatocyte [2] = assay: Antihepatotoxic activity against CCl4-induced cytotoxicity in rat hepatocytes assessed as blockade of sorbitol dehydrogenase release at 25 uM by modified Gerlach method relative to control; format: functional

SMILES | Activity (Hepatocyte [1]) | Activity (Hepatocyte [2])
CCCCCCCCC/C=C\CC/C=C/[C@@H](O)[C@H](CO[C@@H]1O[C@H](CO)[C@@H](O)[C@H](O)[C@H]1O)NC(=O)C(O)CCCCCCCCCCCCCC (stereo partly specified) | 86.4% | 69.5%
CCCCCCCCC/C=C\CC/C=C/[C@@H](O)[C@H](CO[C@@H]1O[C@H](CO)[C@@H](O)[C@H](O)[C@H]1O)NC(=O)CCCCCCCCCCCCCCC | 95.6% | 80.2%
COc1cc(C2Oc3cc([C@H]4Oc5cc(O)cc(O)c5C(=O)[C@@H]4O)ccc3OC2CO)ccc1O (stereo partly specified) [SILIBININ] | 76% | 58.9%
